Assay results from patent US20110201569A1, “Methods For Treating Myocardial Disorders” (priority 2009, published 2011).
“Also recorded” adds a separate entry of the source.

Assays:
Type in all cases: in vivo, mouse
[1] = test system: matrix metalloproteinase-2 (MMP-2); assay: qRT-PCR of MMP-2 mRNA in left ventricle after TAC/sham
Experimental: (§1) 11 to 13 week old male C57BL/6 mice were purchased from Charles River (Germany). Mice were housed in individually ventilated pathogen-free cages with free access to water and standard rodent chow. The animals were handled according to the principles of laboratory animal care (NIH publication No. 85-23, revised 1996), and animal procedures were approved by the local committee for animal care.
(§2) The first injection was performed 5 min prior to TAC or sham-operation procedure (described below) and repeated 4, 8, 12, 24, 36, 48 and 60 hrs after surgery. […]
(§3) Quantitative real-time PCR analysis was completed. […] RNA was dissolved in 100 μl of RNase-free water, and concentration was determined photometrically (absorbance at 260 nm) before storage at −80° C. […]
(§4) Real-time PCR was performed according to the manufacturer's protocol. […] Each sample was measured in triplicate wells and underwent 40 cycles of amplification on an ABI PRISM® Sequence Detection System (Applied Biosystems). CT values were determined with SDS Software 2.2 (Applied Biosystems) and relative quotients (RQ) were calculated following the ΔΔCT method (RQ target gene/GAPDH).
(§5) Statistics were calculated using Prism 4.05 (GraphPad Software Inc., CA, USA). All values are expressed as mean (M)±SEM. […]

[2] = test system: IL-1β; assay: ELISA of IL-1β protein in myocardial tissue after TAC/sham
Experimental: as §1
The first injection was performed 5 min prior to TAC or sham-operation procedure (described below) and repeated 4, 8, 12, 24, 36, 48 and 60 hrs after surgery. Animals were randomly assigned into two groups, receiving either a tetrasodium salt of the compound of formula 1 (hereinafter “Eritoran tetrasodium”) or placebo. […]
For ELISA assays, proteins from snap-frozen myocardial tissue were isolated and cytosolic and nuclear proteins separated according to the manufacturer's protocol (NE-PER®, Nuclear and Cytoplasmic Extraction Kit, Pierce®, Thermo Scientific, IL, USA). Myocardial protein levels in the cytoplasmic fraction were detected with Quantikine mouse IL-1β as well as IL-6 ELISA (R&D Systems, […], USA) as described in the manufacturer's protocol. […] Protein concentration was determined by B CA protein assay (Pierce®).
as §5

[3] = test system: matrix metalloproteinase-9 (MMP-9); assay: qRT-PCR of MMP-9 mRNA in left ventricle after TAC/sham
Experimental: as §1, §2, §3, §4, §5

[4] = test system: C57BL/6 mice; assay: Cardiac biometric parameters (left ventricular weight) three days after transverse aortic constriction (TAC) or sham operation
Excerpt: as §1
To allow for repetitive intravenous injections, a venous port was implanted. Mice were anesthetized with isoflurane 2.0 vol % (Forene®, Abbott GmbH, Germany). Body temperature was maintained at 37° C. The jugular vein was exposed and a catheter (outer diameter 0.64 mm, Dow Corning Europe, Wiesbaden, Germany) inserted into the vessel via a small incision. The catheter was secured with a silk thread and tissue adhesive (Histoacryl, Braun, Germany). Finally, the catheter was tunneled subcutaneously and connected to an extracutaneous port through an incision between scapulae.
The first injection was performed 5 min prior to TAC or sham-operation procedure (described below) and repeated 4, 8, 12, 24, 36, 48 and 60 hrs after surgery. Animals were randomly assigned into two groups, receiving either a tetrasodium salt of the compound of formula 1 (hereinafter “Eritoran tetrasodium”) or placebo. The catheter was flushed with 50 μl 0.9% NaCl before and 100 μl after each injection of 50 μl Eritoran tetrasodium (2.5 mg/ml vehicle; 5 mg/kg bodyweight/application; dosage adopted from Shimamoto et al., Circulation 2006, 114: 1270-1274) or placebo solution.
Treatment groups were separated into two subgroups, undergoing transverse aortic constriction (TAC) or sham operation. Surgery for TAC was achieved as published previously (see, e.g., Baumgarten et al., Circulation 2002, 105: 2192-2197 and Baumgarten et al., Basic Res Cardiol 2006, 101: 427-435). Mice were intubated in a supine position and mechanical ventilation was initiated (MiniVent 845, Hugo Sachs Elektronik, Germany). A left parasternal incision was performed. A suture was passed underneath the aorta and tied down on a 27 Gauge needle, which was immediately removed and allowed to achieve a standardised and previously validated decreased diameter of the aorta. For sham operation the suture was passed underneath the aorta without ligation. For analgesia, mice received a single intraperitoneal injection of 0.065 mg/kg BW buprenorphine.
Three days after TAC or sham operation, the impact on cardiac biometric parameters was investigated. Body weight was registered. Heart and lung were excised, prepared and immediately measured. Total heart weight, left ventricular weight as well as lung weight and tibia length were recorded. Ventricles were snap frozen in liquid nitrogen and kept at −80° C.
Statistics were calculated using Prism 4.05 (GraphPad Software Inc., CA, USA). All values are expressed as mean (M)±SEM. One-way ANOVA with Newman-Keuls post-hoc testing was performed for statistical analysis with the exception of TIMP and cytokine expression which were analysed with Kruskal-Wallis and Dunn's multiple comparison post-hoc testing Impact of TAC-Eritoran on IL-10 expression was analysed with Two-way ANOVA. Differences between experimental groups were considered to be significant with p<0.05.
Example 2 was completed in a manner similar to Example 1, with minor changes as described below.
With the consent of proper authority (LANUV), 12 week old male C57BL/6-mice were anesthetized with Isofluran (2.0 Vol. %) and a catheter was implanted into the right jugular vein. Afterwards, either transverse aortic constriction (TAC) or a sham operation was performed. In TAC animals, the aortic diameter was reduced by 70% with a 6-0 silk filament. Mice received either the compound of formula (I) or placebo i.v. 5 minutes prior to TAC/sham-operation and 6 h, 12 h, 24 h, 36 h, 48 h and 60 h after surgery. […]

[5] = Example 1, TAC vs sham within treated groups, three days after surgery
[6] = Example 1, TAC vs sham-operated, 5 mg/kg i.v. per application, three days after surgery
[7] = Example 2, TAC treated vs TAC-placebo

CCCCCC/C=C\CCCCCCCCCC(=O)N[C@H]1[C@H](OC[C@H]2O[C@H](OP(=O)([O-])[O-])[C@H](NC(=O)CC(=O)CCCCCCCCCCC)[C@@H](OCCCCCCCCCC)[C@@H]2O)O[C@H](COC)[C@@H](OP(=O)([O-])[O-])[C@@H]1OCC[C@@H](CCCCCCC)OC.[Na+].[Na+].[Na+].[Na+] [Eritoran tetrasodium]
MMP-2 mRNA level [1, 5]: remained unchanged by aortic banding | IL-1β protein expression (ELISA) ([2]; Example 1, TAC, three days after surgery): did not display significant increases; also recorded: lower levels of pro-inflammatory cytokines compared to TAC placebo hearts (not significant) | MMP-9 mRNA level [3, 5]: remained unchanged by aortic banding | left ventricular weight/body weight (LVW/BW) [4, 6]: did not differ from sham-operated mice | left ventricular weight/tibia length (LVW/TL) [4, 6]: did not differ from sham-operated mice | left ventricular weight (LVW) ([4]; Example 1, TAC, 5 mg/kg i.v. per application, three days after surgery): 81.32 ± 4.21 mg | cardiac hypertrophy after TAC ([4]; Example 1, TAC, 5 mg/kg i.v. per application, three days after surgery, 5 mg/kg): decreases cardiac hypertrophy after TAC; also recorded: diminished cardiac hypertrophy induced by pressure overload

CCCCCC/C=C\CCCCCCCCCC(=O)N[C@H]1[C@H](OC[C@H]2O[C@H](OP(=O)(O)O)[C@H](NC(=O)CC(=O)CCCCCCCCCCC)[C@@H](OCCCCCCCCCC)[C@@H]2O)O[C@H](COC)[C@@H](OP(=O)(O)O)[C@@H]1OCC[C@@H](CCCCCCC)OC [compound of formula (I), α-D-Glucopyranose, 3-O-decyl-2-deoxy-6-O-[2-deoxy-3-O-[(3R)-3-methoxydecyl)-6-O-methyl-2-[[(−11Z)-1-oxo-11-octadecenyl)amino]-4-O-phosphono-β-D-glucopyranosyl]-2-[(1,3-dioxotetradecyl)amino]-1-(dihydrogen phosphate)]
MMP-2 mRNA expression [1, 7]: higher in the TAC-placebo animals compared to the TAC groups treated | IL-1β protein expression ([2]; Example 2, TAC treated group): reduced | MMP-9 mRNA expression [3, 7]: higher in the TAC-placebo animals compared to the TAC groups treated | left ventricle weight (LVW) ([4]; Example 2, TAC, i.v. 5 min prior to and 6-60 h after surgery, three days after surgery): 81.32 ± 4.2 mg | development of cardiac hypertrophy ([4]; Example 2, murine model of transverse aortic constriction (TAC)): prevents the development of cardiac hypertrophy
